“And” between values parts separate entries of the source, which are not always exact repeats. Equal values may be shown once. Toxic doses and inconclusive results are not listed. No stated cut-off is given here; in the data, active means T/C of 150% or more; inactive means T/C below 125%.
Test system: L1210 leukemia ip in BDF1 mice, survival T/C
Assay: NCI In Vivo Anticancer Drug Screen. Data for tumor model L1210 Leukemia (intraperitoneal) in B6D2F1 (BDF1) mice
Conditions: endpoint: mean survival time, higher = longer survival
Procedure, shortened: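 Antitumor effect is assessed in tumor-bearing animals. Survival in the compound arm is compared with a vehicle-dosed control arm and expressed as their quotient.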

[1] = dose: 100.0 mg/kg/injection, schedule: Q04DX003 (ip), vehicle: saline with Tween-80
[2] = dose: 200.0 mg/kg/injection, schedule: Q04DX003 (ip), vehicle: saline with Tween-80
[3] = dose: 400.0 mg/kg/injection, schedule: Q04DX003 (ip), vehicle: saline with Tween-80
[4] = dose: 100.0 mg/kg/injection, schedule: Q04DX002 (ip), vehicle: Klucel (hydroxypropylcellulose) (HPC)
[5] = dose: 200.0 mg/kg/injection, schedule: Q04DX002 (ip), vehicle: Klucel (hydroxypropylcellulose) (HPC)
[6] = dose: 400.0 mg/kg/injection, schedule: Q04DX002 (ip), vehicle: Klucel (hydroxypropylcellulose) (HPC)
[7] = dose: 100.0 mg/kg/injection, schedule: Q01DX009 (ip), vehicle: saline with Tween-80
[8] = dose: 200.0 mg/kg/injection, schedule: Q01DX009 (ip), vehicle: saline with Tween-80
[9] = dose: 100.0 mg/kg/injection, schedule: Q04DX003 (ip), vehicle: Klucel (hydroxypropylcellulose) (HPC)
[10] = dose: 200.0 mg/kg/injection, schedule: Q04DX003 (ip), vehicle: Klucel (hydroxypropylcellulose) (HPC)
[11] = dose: 400.0 mg/kg/injection, schedule: Q04DX003 (ip), vehicle: Klucel (hydroxypropylcellulose) (HPC)
[12] = dose: 100.0 mg/kg/injection, schedule: Q01DX009 (ip), vehicle: Klucel (hydroxypropylcellulose) (HPC)
[13] = dose: 50.0 mg/kg/injection, schedule: Q01DX009 (ip), vehicle: saline with Tween-80

Measured: T/C

CNC(=S)N/N=C/c1ccc([N+](=O)[O-])s1
inactive: [1] 90 % of control | [2] 90 % of control | [3] 89 % of control

CCCCCCCCCCCCCCCCCCNC(=S)OC
inactive: [4] 91 % of control | [5] 97 % of control | [6] 102 % of control

N#CC(C#N)=Cc1ccnc2ccccc12
inactive: dose: 10.0 mg/kg/injection, schedule: Q01DX009 (ip), vehicle: saline with Tween-80 101 % of control | dose: 12.5 mg/kg/injection, schedule: Q04DX003 (ip), vehicle: saline with Tween-80 101 % of control | dose: 20.0 mg/kg/injection, schedule: Q01DX009 (ip), vehicle: saline with Tween-80 101 % of control | dose: 25.0 mg/kg/injection, schedule: Q04DX003 (ip), vehicle: saline with Tween-80 104 % of control | dose: 40.0 mg/kg/injection, schedule: Q01DX009 (ip), vehicle: saline with Tween-80 101 % of control | dose: 50.0 mg/kg/injection, schedule: Q04DX003 (ip), vehicle: saline with Tween-80 95 % of control | [1] 105 % of control

Cc1ccc(C)c(CCC(C)CCCC(C)C)c1 (configuration not stated)
inactive: dose: 100.0 mg/kg/injection, schedule: Q01DX001 (ip), vehicle: saline 97 % of control | dose: 200.0 mg/kg/injection, schedule: Q01DX001 (ip), vehicle: saline 104 % of control

CCCCCCCCC[n+]1cccc(C#N)c1
inactive: dose: 18.75 mg/kg/injection, schedule: Q01DX009 (ip), vehicle: saline 90 % of control | dose: 37.5 mg/kg/injection, schedule: Q01DX009 (ip), vehicle: saline 88 % of control | dose: 37.5 mg/kg/injection, schedule: Q04DX003 (ip), vehicle: acetone 100 % of control | dose: 75.0 mg/kg/injection, schedule: Q01DX001 (ip), vehicle: saline 100 % of control | dose: 75.0 mg/kg/injection, schedule: Q01DX009 (ip), vehicle: saline 90 % of control | dose: 75.0 mg/kg/injection, schedule: Q04DX003 (ip), vehicle: acetone 97 % of control | dose: 150.0 mg/kg/injection, schedule: Q01DX001 (ip), vehicle: saline 102 % of control | dose: 150.0 mg/kg/injection, schedule: Q04DX003 (ip), vehicle: acetone 105 % of control

CC[n+]1ccc(C)c2ccccc21
inactive: dose: 12.5 mg/kg/injection, schedule: Q04DX002 (ip), vehicle: saline 102 % of control and 103 % of control | dose: 12.5 mg/kg/injection, schedule: Q04DX003 (ip), vehicle: saline 103 % of control | dose: 25.0 mg/kg/injection, schedule: Q04DX002 (ip), vehicle: saline 95 % of control and 98 % of control | dose: 25.0 mg/kg/injection, schedule: Q04DX003 (ip), vehicle: saline 100 % of control | dose: 50.0 mg/kg/injection, schedule: Q04DX002 (ip), vehicle: saline 95 % of control and 102 % of control | dose: 50.0 mg/kg/injection, schedule: Q04DX003 (ip), vehicle: saline 105 % of control

Cc1ccc(Cl)cc1NC(=O)Nc1ccc(C)c(NC(=O)Nc2cc(Cl)ccc2C)c1
inactive: [7] 87 % of control | [1] 88 % of control | [8] 92 % of control | [2] 86 % of control | dose: 400.0 mg/kg/injection, schedule: Q01DX009 (ip), vehicle: saline with Tween-80 98 % of control | [3] 90 % of control

c1ccc2c(c1)NC(C1Nc3ccccc3S1)S2 (configuration not stated)
inactive: dose: 100.0 mg/kg/injection, schedule: Q01DX001 (ip), vehicle: acetone 90 % of control | [9] 93 % of control | dose: 200.0 mg/kg/injection, schedule: Q01DX001 (ip), vehicle: acetone 88 % of control | [10] 93 % of control | dose: 400.0 mg/kg/injection, schedule: Q01DX001 (ip), vehicle: acetone 88 % of control | [11] 90 % of control

CC(=O)Oc1c2ccccc2cc2c1ccc1ccccc12
inactive: [4] 119 % of control | [5] 100 % of control | [6] 106 % of control

CCC(CO)(CO)[N+](=O)[O-]
inactive: [1] 95 % of control | [2] 91 % of control | [3] 91 % of control

COc1nc2ccccc2nc1N1CC1
inactive: dose: 26.0 mg/kg/injection, schedule: Q01DX009 (ip), vehicle: acetone 103 % of control | dose: 40.0 mg/kg/injection, schedule: Q01DX009 (ip), vehicle: acetone 101 % of control | dose: 60.0 mg/kg/injection, schedule: Q01DX009 (ip), vehicle: acetone 108 % of control | dose: 90.0 mg/kg/injection, schedule: Q01DX009 (ip), vehicle: acetone 101 % of control | dose: 135.0 mg/kg/injection, schedule: Q01DX009 (ip), vehicle: acetone 121 % of control

CCCCOC(=O)c1ccc(NC(=O)Nc2cc([N+](=O)[O-])ccc2Cl)cc1
inactive: dose: 25.0 mg/kg/injection, schedule: Q01DX009 (ip), vehicle: Klucel (hydroxypropylcellulose) (HPC) 113 % of control | dose: 50.0 mg/kg/injection, schedule: Q01DX009 (ip), vehicle: Klucel (hydroxypropylcellulose) (HPC) 100 % of control | [12] 90 % of control

c1ccc(-c2cncc(CNCc3cncc(-c4ccccc4)c3)c2)cc1
inactive: dose: 100.0 mg/kg/injection, schedule: Q01DX001 (ip), vehicle: Klucel (hydroxypropylcellulose) (HPC) 102 % of control | dose: 200.0 mg/kg/injection, schedule: Q01DX001 (ip), vehicle: Klucel (hydroxypropylcellulose) (HPC) 95 % of control | dose: 400.0 mg/kg/injection, schedule: Q01DX001 (ip), vehicle: Klucel (hydroxypropylcellulose) (HPC) 110 % of control

COc1cccc(NC(=O)NCCCl)c1
inactive: dose: 12.5 mg/kg/injection, schedule: Q01DX009 (ip), vehicle: saline with Tween-80 96 % of control | dose: 25.0 mg/kg/injection, schedule: Q01DX009 (ip), vehicle: saline with Tween-80 86 % of control | [13] 90 % of control

COc1cc(/C=C(/C#N)[N+](=O)[O-])ccc1O
inactive: dose: 3.12 mg/kg/injection, schedule: Q01DX009 (ip), vehicle: DMSO 93 % of control | dose: 6.25 mg/kg/injection, schedule: Q01DX009 (ip), vehicle: DMSO 91 % of control | dose: 12.5 mg/kg/injection, schedule: Q01DX009 (ip), vehicle: DMSO 94 % of control | dose: 12.5 mg/kg/injection, schedule: Q04DX003 (ip), vehicle: DMSO 102 % of control | dose: 25.0 mg/kg/injection, schedule: Q01DX009 (ip), vehicle: DMSO 89 % of control | dose: 25.0 mg/kg/injection, schedule: Q04DX003 (ip), vehicle: DMSO 114 % of control | dose: 50.0 mg/kg/injection, schedule: Q01DX009 (ip), vehicle: DMSO 93 % of control | dose: 50.0 mg/kg/injection, schedule: Q04DX003 (ip), vehicle: DMSO 101 % of control

Cc1cccc(C)c1NC(=O)Oc1ccccc1C(N)=O
inactive: [12] 97 % of control | [9] 98 % of control | dose: 200.0 mg/kg/injection, schedule: Q01DX009 (ip), vehicle: Klucel (hydroxypropylcellulose) (HPC) 100 % of control | [10] 104 % of control | [11] 94 % of control

COc1ccc(Cc2nnc(Cc3ccc(OC)c(OC)c3)nn2)cc1OC
inactive: [13] 89 % of control | [7] 93 % of control | [8] 87 % of control
